# Results as given in paper PMC10068595, “Novel asymmetrical azines appending 1,3,4-thiadiazole sulfonamide: synthesis, molecular structure analyses, in silico ADME, and cytotoxic effect” (RSC Advances, 2023).
# What was measured:
# Assay type in all cases: cell-based
# Caco2 = test: MTT cytotoxicity assay, Caco2; conditions: Homo sapiens, Caco-2, colon cancer Caco2, 48 h
# Experimental: (§1) HepG2, MCF-7, WI 38, Caco-2 cancer cell lines were cultured in complete media of RPMI and DMEM, respectively, at 5% carbon dioxide and 37 °C following standard tissue culture work. The cells were grown in “10% fetal bovine serum (FBS) and 1% penicillin–streptomycin” in 96-multiwell plate. All the synthesized compounds were screened for their cytotoxicity using 20 μL of MTT solution (Promega, USA) for 48 h using untreated and treated cells with concentrations of (0.01, 0.1, 1, 10, and 100 μM) for 48 h.[41,42] The plate was cultured for 3 hours. The percentage of cell viability was calculated following this equation: […]. An ELISA microplate reader was used to measure the absorbance at 690 nm to calculate the viability versus concentration, and the IC50 value using GraphPad prism software.
# HepG-2 = test: MTT cytotoxicity assay, HepG-2; conditions: Homo sapiens, HepG2, hepatocellular carcinoma HepG-2, 48 h
# Experimental: as §1
# MCF-7 = test: MTT cytotoxicity assay, MCF-7; conditions: Homo sapiens, MCF7, breast cancer MCF-7, 48 h
# Experimental: as §1
# WI 38 = test: MTT cytotoxicity assay, normal lung fibroblast WI 38; conditions: Homo sapiens, 48 h
# Experimental: as §1
Structure (SMILES),IC50 (Caco2),IC50 (HepG-2),IC50 (MCF-7),IC50 (WI 38)
"CC(=NN=C1C(=O)N(CN(C)C)c2ccccc21)c1nn(-c2ccc(S(N)(=O)=O)cc2)c(=N)s1 [Compound 15a, 4-[5-(1-((1-((Dimethylamino)methyl)-2-oxoindolin-3-ylidene)hydrazineylidene)ethyl)-2-imino-1,3,4-thiadiazol-3(2H)-yl]benzenesulfonamide]",2.33 ± 0.1 µM,6.54 ± 0.4 µM,4.34 ± 0.2 µM,13.4 ± 0.7 µM
"CC(=NN=C1C(=O)Nc2ccccc21)c1nn(-c2ccc(S(N)(=O)=O)cc2)c(=N)s1 [Compound 13, 4-[2-Imino-5-(1-((2-oxoindolin-3-ylidene)hydrazineylidene)ethyl)-1,3,4-thiadiazol-3(2H)-yl]benzenesulfonamide]",8.99 ± 0.4 µM,1.76 ± 0.1 µM,17.7 ± 0.8 µM,11.4 ± 0.6 µM
"CC(=NN=Cc1ccc(N(C)C)cc1)c1nn(-c2ccc(S(N)(=O)=O)cc2)c(=N)s1 [Compound 7b, 4-[5-(1-((4-(Dimethylamino)benzylidene)hydrazineylidene)ethyl)-2-imino-1,3,4-thiadiazol-3(2H)-yl]benzenesulfonamide]",33.6 ± 1.7 µM,26.8 ± 1.5 µM,35.2 ± 1.6 µM,49.8 ± 2.6 µM
"COc1ccc(C=NN=C(C)c2nn(-c3ccc(S(N)(=O)=O)cc3)c(=N)s2)cc1 [Compound 7a, 4-[2-Imino-5-(-1-((4-methoxybenzylidene)hydrazineylidene)ethyl)-1,3,4-thiadiazol-3(2H)-yl]benzenesulfonamide]",3.16 ± 0.2 µM,4.17 ± 0.2 µM,31.5 ± 1.4 µM,28.2 ± 1.5 µM
"CC(=NN=Cc1ccco1)c1nn(-c2ccc(S(N)(=O)=O)cc2)c(=O)s1 [Compound 11, 4-[5-(1-((Furan-2-ylmethylene)hydrazineylidene)ethyl)-2-oxo-1,3,4-thiadiazol-3(2H)-yl]benzene sulfonamide]",8.55 ± 0.4 µM,15 ± 0.8 µM,3.34 ± 0.2 µM,24.5 ± 1.8 µM
"CC(=NN=Cc1ccc([N+](=O)[O-])cc1)c1nn(-c2ccc(S(N)(=O)=O)cc2)c(=N)s1 [Compound 7c, 4-[2-Imino-5-(1-((4-nitrobenzylidene)hydrazineylidene)ethyl)-1,3,4-thiadiazol-3(2H)-yl]benzenesulfonamide]",3.37 ± 0.2 µM,3.04 ± 0.2 µM,9.59 ± 0.4 µM,25.4 ± 1.9 µM
"CCN(CC)CN1C(=O)C(=NN=C(C)c2nn(-c3ccc(S(N)(=O)=O)cc3)c(=N)s2)c2ccccc21 [Compound 15b, 4-[5-(1-((1-((Diethylamino)methyl)-2-oxoindolin-3-ylidene)hydrazineylidene)ethyl)-2-imino-1,3,4-thiadiazol-3(2H)-yl)benzenesulfonamide]",0.78 ± 0.04 µM,1.62 ± 0.1 µM,4.43 ± 0.2 µM,16.8 ± 0.9 µM
"COc1cc(OC)c(C=NN=C(C)c2nn(-c3ccc(S(N)(=O)=O)cc3)c(=N)s2)c(OC)c1 [Compound 9, 4-[2-Imino-5-(1-((2,4,6-trimethoxybenzylidene)hydrazineylidene)ethyl)-1,3,4-thiadiazol-3(2H)-yl]benzenesulfonamide]",47.2 ± 2.3 µM,12.2 ± 0.7 µM,7.21 ± 0.3 µM,25.4 ± 1.3 µM
